“Also recorded” adds a separate entry of the source.
Tests used:
[1] = test system: 4T1Br4 mammary tumor cells; assay: 4T1Br4 triple negative breast cancer model in BALB/c mice, oral gavage treatment
Excerpt: Light to ten-week-old BALB/c mice (Charles River Laboratories; total of 48 mice) are orthotopically injected with 25,000-50,000 4T1Br4 mammary tumor cells in 100 microliters unilaterally into 4th mammary fat pad. Primary tumor growth was monitored by caliper measurements and biweekly body weight and wellness checks. When tumor size reached 0.5-0.7 cu cm, animals were divided into 4 experimental groups: 1) No Treatment (n=8), 2) Single OFZ Treatment (n=8), 3) Single CMP Treatment (n=16), 4) Combination CMP and OFZ/PBZ Treatment (n=16). Treatments started at 2 weeks post cancer cell inoculation. The following are the oral gavage doses: OFZ, 5 mg/kg; PBZ, 9 mg/kg; FBZ, 10 mg/kg; CMPs 10 mg/kg. All drugs are dissolved in sterile saline and final gavage volume is 200 microliters per mouse. […] When primary tumors reach 1 cu cm, they were excised under general anesthesia for all groups except for half of the animals in single CMP and combination CMP and BZ treatments. For those groups, half of the animals in each of these drug treatments received tumor excision surgery and for the remaining half, the primary tumors are untouched throughout the course of the experiment. Primary tumor size, percentage tumor growth compared to pre-treatment baseline, body weights and survival were assessed. Upon death, necropsy was conducted to assess metastatic tumor growth in distal organs. […] Treatment started 2 weeks past orthotopic cancer cell inoculation. […] Values are represented as means+SEMs.
Treatment started 2 weeks post-cancer cell inoculation. […] Data are represented as group averages+SEMs.
Measures were averaged for each week and represented as Means+SEMs. Treatment started two weeks post-inoculation with cancer cells.
Necropsy was then conducted on the animals that expired for assessment of gross metastasis in lungs, brain and liver that may be responsible for expiration of mice. Detailed necropsy was performed and archived for each animal.

MDA-MB-468 cells = assay: three-dimensional spheroid multi-parametric assay, MDA-MB-468; assay type: cell-based, human; conditions: MDA-MB-468 spheroids, 24 h; for activity / potency in cell line (image analysis, FIG. 2): average of three experiments
Protocol: Controls included 10 μM ABT737, 5 μg/mL 5-fluorouracil, 0.5 μg/mL doxorubicin, media alone, and solvent controls. After treatments, cells were labeled with the cell permeable nuclear stain Hoechst 33342, a marker for cleaved caspase 3/7, and the cell impermeable nucleic acid stain 7AAD for three hours. Cells were fixed then images acquired using a high content imager at 10× magnification. Scale bars represent 200 μm. The experiment was repeated 3 times.
MDA-MB-231 or MDA-MB-468 cells were plated on a black plate with clear bottom low adherence spheroid 384-well tissue culture plate (Corning 3830; Corning NY) at a concentration of 1,500 cells per well in ice-cold complete media without phenol red containing 2.5% matrigel (BD Biosciences, Billerica, MA) in a final volume of 30 μL/well and allowed to adhere for 24 hours. After confirming the formation of a spheroid, 30 μL of medium containing treatment at two times the final concentration was added. Treatments consisted of 10, 5, 2.5 or 1.25 μM oxfendazole (OFZ), 5, 2.5, 1.25 or 0.625 μM parbendazole (PBZ) or a combination 10/5, 5/2.5, 2.5/1.25 or 1.25/0.625 μM OFZ/PBZ. Controls included 10 μM ABT737, 5 μg/mL 5-fluorouracil, 0.5 μg/mL doxorubicin, media alone, and solvent controls. Solvent for drug treatments was 10% DMSO by weight. Cells were incubated with treatment for 24 h. At the end of this incubation 20 μL/well of a staining mixture containing 2 drops/mL NucBlue Live Cell Stain Hoechst 33342 (Molecular Probes, Eugene, OR), 5 μM CellEvent™ Caspase-3/7 Green Detection Reagent (Molecular Probes, Eugene, OR) and […] 7-amino-actinomycin D (7AAD; Sigma, St. Louis, MO) were added and allowed to incubate for 3 h. Cells were fixed with 4% paraformaldehyde by weight. Images were acquired using the ImageXpress® Micro XLS widefield HCS (Molecular Devices, Sunnyvale, CA), with a 10× Plan Fluor objective, binning at 2 and focusing on plate bottom, then offset by bottom thickness. A stack of 8 images separated by 10 μm starting at the well bottom and covering approximately the lower half of each spheroid were acquired. The best focus projection of this stack was analyzed using the Multi-Wavelength Cell Scoring Module of the MetaXpress 5.1.0.3 software (Molecular Devices, Sunnyvale, CA). The results were plotted using Microsoft excel (Redmond, WA). To normalize results, the solvent control values were subtracted from the 7AAD and the Caspase 3 percent positive results for treatment samples. Total cell count was expressed as a percentage comparing treatments to respective solvent controls. Compounds were tested in duplicate within plates. The in vitro effectiveness of BZs, either singly or in combination on tumor cytotoxicity using MDA-MB468 human breast cancer cell line spheroids was assessed. […]

MDA-MB-231 cells = assay: three-dimensional spheroid multi-parametric assay, MDA-MB-231; assay type: cell-based, human; conditions: MDA-MB-231 spheroids, 24 h; for activity / potency in cell line (image analysis, FIG. 4): average of three experiments
Protocol: MDA-MB-231 or MDA-MB-468 cells were plated on a black plate with clear bottom low adherence spheroid 384-well tissue culture plate (Corning 3830; Corning NY) at a concentration of 1,500 cells per well in ice-cold complete media without phenol red containing 2.5% matrigel (BD Biosciences, Billerica, MA) in a final volume of 30 μL/well and allowed to adhere for 24 hours. After confirming the formation of a spheroid, 30 μL of medium containing treatment at two times the final concentration was added. Treatments consisted of 10, 5, 2.5 or 1.25 μM oxfendazole (OFZ), 5, 2.5, 1.25 or 0.625 μM parbendazole (PBZ) or a combination 10/5, 5/2.5, 2.5/1.25 or 1.25/0.625 μM OFZ/PBZ. Controls included 10 μM ABT737, 5 μg/mL 5-fluorouracil, 0.5 μg/mL doxorubicin, media alone, and solvent controls. Solvent for drug treatments was 10% DMSO by weight. Cells were incubated with treatment for 24 h. At the end of this incubation 20 μL/well of a staining mixture containing 2 drops/mL NucBlue Live Cell Stain Hoechst 33342 (Molecular Probes, Eugene, OR), 5 μM CellEvent™ Caspase-3/7 Green Detection Reagent (Molecular Probes, Eugene, OR) and […] 7-amino-actinomycin D (7AAD; Sigma, St. Louis, MO) were added and allowed to incubate for 3 h. Cells were fixed with 4% paraformaldehyde by weight. Images were acquired using the ImageXpress® Micro XLS widefield HCS (Molecular Devices, Sunnyvale, CA), with a 10× Plan Fluor objective, binning at 2 and focusing on plate bottom, then offset by bottom thickness. A stack of 8 images separated by 10 μm starting at the well bottom and covering approximately the lower half of each spheroid were acquired. The best focus projection of this stack was analyzed using the Multi-Wavelength Cell Scoring Module of the MetaXpress 5.1.0.3 software (Molecular Devices, Sunnyvale, CA). The results were plotted using Microsoft excel (Redmond, WA). To normalize results, the solvent control values were subtracted from the 7AAD and the Caspase 3 percent positive results for treatment samples. Total cell count was expressed as a percentage comparing treatments to respective solvent controls. Compounds were tested in duplicate within plates. The in vitro effectiveness of BZs, either singly or in combination on tumor cytotoxicity using MDA-MB468 human breast cancer cell line spheroids was assessed.
FIG. 3 illustrates the in vitro effectiveness of BZs, either singly or in combination on tumor cytotoxicity using MDA-MB4231 human breast cancer cell line spheroids. […] Images were analyzed to determine cell counts based on DNA (Hoechst 33342 stain; blue), those dying through apoptosis by following cleavage of caspase 3, and cells dead or dying as measured by the loss of their membrane integrity (7-aminoactinomycin; red). […]

[2] = cited from earlier work
[3] = cited from earlier work; remark: listed apart in the source

| SMILES | time of expiration / euthanasia of representative mouse ([1]; days post cancer cell inoculation) [days] | lung metastasis at necropsy ([1]; gross necropsy) | cause of death of group ([1]; necropsy, listed as OFZ Alone) | angiogenesis at tumor / excision site ([1]; representative mouse) | splenomegaly ([1]; representative mouse, necropsy) | body weight across treatment weeks (FIG. 7) ([1]; tumor-bearing mice, measured biweekly) | survival at 6th week of treatment (animals remaining) ([1]; week 6 of treatment) | death by loss of membrane integrity (7AAD) (MDA-MB-468 cells) | activity / potency in cell line (image analysis, FIG. 2) (MDA-MB-468 cells) | caspase cleavage (induction of apoptosis) (MDA-MB-231 cells) | activity / potency in cell line (image analysis, FIG. 4) (MDA-MB-231 cells) | plasma half-life ([2]; in animals) [h] | tolerability / toxicity ([2]; in vivo) | caspase 3/7 cleavage (MDA-MB-468 cells) | time to peak blood levels ([3]; after oral administration) [h] | time to full recovery of liver function after cessation of treatment ([3]; transient liver function suppression) [weeks] |
| --- | --- | --- | --- | --- | --- | --- | --- | --- | --- | --- | --- | --- | --- | --- | --- | --- |
| COC(=O)Nc1nc2ccc([S+]([O-])c3ccccc3)cc2[nH]1 (stereo not shown) [OFZ, (5-(phyenylsulphinyl)-18-benzimidazole-2yl) carmabic acid methyl ester] | 32 | extensive metastases in the mouse lungs | expired entirely due to lung metastasis; also recorded: metastatic process in the lungs as cause of death | angiogenesis is visible | instances of splenomegaly | significant decline in bodyweight measurements | deceased | favoring death by loss of membrane integrity | active | caused caspase cleavage | more modest activity | 8.5 to 11 | extremely well-tolerated with no known toxicity |  |  |  |
| CCCCc1ccc2nc(NC(=O)OC)[nH]c2c1 [PBZ, N-(6-butyl-1H-benzimidazol-2-yl) carbamic acid methyl ester] |  |  |  |  |  |  |  |  | active; also recorded: statistically significantly more potent than OFZ | caused caspase cleavage | statistically significantly more potent than OFZ |  |  | caused more caspase cleavage | 6 to 8 | ≤ 2 |
